The pEC50 is the negative decadic logarithm of the EC50, by convention in mol/L.

pEC50: −log10 of the molar value.

Test [1] addresses Human CB1R (Cannabinoid receptor 1) (Homo sapiens (Human), UniProt P21554). The experiment in a line: CB-1 in vitro cAMP assay (HTRF), inverse agonism. It is filed as cell-based. The note with it: mean where tested more than once. From the text:
(§1) CB1 and CB2 receptors are Gi-coupled GPCR. Activation of CB1 and CB2 receptors results in a decrease in cAMP production. An inverse agonist of the CB1 or CB2 receptor results in the opposite effect, an increase of cAMP production. The principle of this assay is based on HTRF® technology (Homogeneous Time-Resolved Fluorescence). The method is a competitive immunoassay between native cAMP produced by cells and the cAMP labeled with the fluorophore d2. The tracer binding is quantified by a Mab anti-cAMP labeled with Eu3+TBP-NHS Cryptate (supplied as part of the assay kit). The specific signal (i.e. energy transfer) is inversely proportional to the concentration of cAMP in the standard or sample.
(§2) Human CB1R (Cannabinoid receptor 1) was stably transfected in HEK-293 cells (DiscoveRx, cat: 93-0200C1). Human CB2R (Cannabinoid receptor 2) was stably transfected in HEK-293 cells (DiscoveRx, cat: 93-0201C1). Cell cultures were maintained in media: DMEM (Invitrogen Cat#12430-054) supplemented with 10% HI FBS (Invitrogen Cat#16140-071), 1% L-glutamine (Invitrogen Cat#25030-081), 0.2 mg/ml Hygromycin B (Invitrogen Cat#10687-010), 600 μg/mL G418 (Invitrogen Cat#10131-035), and 1X Penn/Strep (Invitrogen 15140-122). After cell expansion, aliquots were cryo-stored in media containing 5% DMSO (Pierce Cat#20684).
(§3) One day prior to experiments media was warmed to 37° C. and the cryo-stored cells were thawed in a 37° C. water bath. The cells were then added to media (10× volume) and the mixture was centrifuged at 1000 RPM for 5 min. The supernate was removed and the cells were re-suspended in media. A sample of the cell suspension was evaluated on a Cedex XS automated cell counter (Innovatis Systems) to determine viable cells/ml. Additional media was added to the cells to achieve a final cell density of 4E5 cells/mL. The cells were then plated into 384 well PDL white solid bottom plates (Greiner, Cat#781945) at 20 μL per well using a Multidrop (Thermo Scientific). Cells were removed from Row P (location of cAMP standards). Two columns of cells were plated into a clear bottom 384 well PDL coated plate (Greiner, Cat#781944) to view confluence the day of the assay. The cell plates were lidded and stored for 15 minutes in a hood, then transferred to an incubator (37° C., 5% CO2, 95% humidity) overnight.
(§4) DMSO was added to all wells of 384 well V bottom polystyrene plate (Greiner, Cat#781280) except to columns 1 and 13, rows 0 and P and wells M13-M23 and N13-N23. Test compounds (60 μL, 10 mM) were added to Column 1 and 13 (A1 through N1 and A13 through L13). Test compounds were serially diluted 1/3 by transferring and mixing 20 μl sample with 40 μL DMSO.
(§5) DMSO (40 μL) was added to wells of 384 well V bottom polystyrene plate: O2 through O11, M14 through M23, N14 through N23, and O14 through O23. AM630 (also known as [6-iodo-2-methyl-1-[2-(4-morpholinyl)ethyl]-1H-indol-3-yl](4-methoxyphenyl)-methanone, Cayman Chemical, Cat#10006974) (60 μL, 10 mM) was added to 01; and 1-(2,4-dichlorophenyl)-7-[(4-fluorophenyl)methylene]-4,5,6,7-tetrahydro-N-1-piperidinyl-1H-indazole-3-carboxamide (60 μL, 10 mM) was added to N13. The control was serially diluted 1/3 by transferring and mixing 20 μl sample with 40 μL DMSO. This process resulted 11 doses per control, 10 mM to […].
(§6) Cells plated the day prior to the assay in clear bottom plates were viewed on an inverse microscope to ensure confluency in the range of 60-75%. […]
For orientation: Changes in cAMP serve as a functional read-out for many G protein-coupled receptors.

Test [2] deals with Human CB2R (Cannabinoid receptor 2) (Homo sapiens (Human), UniProt P34972). The test can be described thus: CB-2 in vitro cAMP assay (HTRF), inverse agonism. The note with it: mean where tested more than once. It is filed as cell-based.
Sequence of Human CB2R (Cannabinoid receptor 2) (P34972 whole entry): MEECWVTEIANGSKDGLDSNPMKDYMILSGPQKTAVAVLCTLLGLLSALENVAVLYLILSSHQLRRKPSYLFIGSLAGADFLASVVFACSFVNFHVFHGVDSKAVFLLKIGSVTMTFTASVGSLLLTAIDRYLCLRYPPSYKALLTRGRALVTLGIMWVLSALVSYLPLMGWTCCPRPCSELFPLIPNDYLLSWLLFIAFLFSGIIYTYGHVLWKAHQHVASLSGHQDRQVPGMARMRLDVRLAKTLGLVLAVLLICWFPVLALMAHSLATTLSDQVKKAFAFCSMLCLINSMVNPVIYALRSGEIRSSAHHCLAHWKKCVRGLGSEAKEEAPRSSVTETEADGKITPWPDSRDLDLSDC
Excerpt: as §1, §2, §3, §4, §5, §6

Sequence of Human CB1R (Cannabinoid receptor 1) (P21554 whole entry): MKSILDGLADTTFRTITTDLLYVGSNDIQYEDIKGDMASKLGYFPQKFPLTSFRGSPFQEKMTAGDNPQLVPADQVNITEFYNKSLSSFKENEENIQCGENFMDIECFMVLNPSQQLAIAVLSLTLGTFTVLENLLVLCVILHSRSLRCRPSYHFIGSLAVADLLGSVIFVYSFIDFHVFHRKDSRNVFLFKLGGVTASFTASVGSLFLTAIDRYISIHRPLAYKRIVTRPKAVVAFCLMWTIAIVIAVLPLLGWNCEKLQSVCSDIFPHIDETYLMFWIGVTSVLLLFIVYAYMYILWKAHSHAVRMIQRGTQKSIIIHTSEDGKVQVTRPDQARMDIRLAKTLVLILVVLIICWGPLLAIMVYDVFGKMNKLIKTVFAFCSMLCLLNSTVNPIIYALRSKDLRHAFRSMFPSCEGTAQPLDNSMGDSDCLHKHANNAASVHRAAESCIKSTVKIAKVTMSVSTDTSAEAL

`O=c1cc(N[C@@H]2CCN(S(=O)(=O)C(F)(F)F)C2)c2cc(C(c3ccc(Cl)cc3)c3nccs3)ccc2[nH]1` (stereo partly drawn) [Compound 47, 6-[(4-Chlorophenyl)(1,3-thiazol-2-yl)methyl]-4-({(3R)-1-[(trifluoromethyl)sulfonyl]-pyrrolidin-3-yl}amino)quinolin-2(1H)-one]: the results for the negative logarithm of the EC50 (pEC50) in test [1] and in test [2] were 7.12 and 5.34, respectively.

Take `CNC(=O)COc1cc(NC2CCN(S(=O)(=O)C(F)(F)F)CC2)c2cc(C(c3ccc(Cl)cc3)c3ccc(Cl)cc3)ccc2n1` [Compound 533, 2-({6-[Bis(4-chlorophenyl)methyl]-4-({1-[(trifluoromethyl)sulfonyl]-piperidin-4-yl}amino)quinolin-2-yl}oxy)-N-methylacetamide]: the pEC50 in test [1] was 7.42; in test [2], less than 5.00.

For `NC(=O)CCCCOc1cc(C(c2ccc(Cl)cc2)c2ccc(Cl)cc2)cc2c(NC3CCN(S(=O)(=O)C(F)(F)F)CC3)ccnc12` [Compound 538, 5-((6-(bis(4-chlorophenyl)methyl)-4-((1-((trifluoromethyl)sulfonyl)piperidin-4-yl)amino)quinolin-8-yl)oxy)pentanamide], the pEC50 in test [1] is 7.29; in test [2], 5.06.

In the case of `O=c1cc(/C=C/c2cccc(F)c2)c2cc(C(c3ccccc3)c3ccc(Cl)cc3)ccc2[nH]1` (stereo not shown) [Compound 32, 6-[(4-Chlorophenyl)(phenyl)methyl]-4-[(E)-2-(3-fluorophenyl)ethenyl]quinolin-2(1H)-one], the negative logarithm of the EC50 (pEC50) in test [1] was 5.49; in test [2], less than 5.00.

With `O=c1cc(NC2CCN(S(=O)(=O)C(F)(F)F)CC2)c2cc(C(c3ccc(Cl)cc3)c3ccc(Cl)nc3)ccc2[nH]1` (stereo not shown) [Compound #72, 6-[(4-chlorophenyl)(6-chloropyridin-3-yl)methyl]-4-[[1-(trifluoromethane)sulfonylpiperidin-4-yl]amino]-1,2-dihydroquinolin-2-one], the negative logarithm of the EC50 (pEC50) in test [1] is 7.96; in test [2], 5.18.

Consider `O=C(O)c1ccc(Nc2cc(=O)[nH]c3ccc(C(c4ccc(Cl)cc4)c4ccc(Cl)cc4)cc23)cc1` [Compound 86, 4-({6-[Bis(4-chlorophenyl)methyl]-2-oxo-1,2-dihydroquinolin-4-yl}amino)benzoic acid], for which the negative-log EC50 (pEC50) in test [1] and in test [2] was less than 5.00 throughout.

As for `O=c1cc(NC2CCN(S(=O)(=O)C(F)(F)F)CC2)c2cc(C(Cc3ccc(F)cc3)c3ccc(Cl)cc3)ccc2[nH]1` (stereo not shown) [Compound #135, 6-(1-(4-chlorophenyl)-2-(4-fluorophenyl)ethyl)-4-((1-((trifluoromethyl)sulfonyl)piperidin-4-yl)amino)quinolin-2(1H)-one], the negative logarithm of the EC50 (pEC50) in test [1] is 5.96; in test [2], 5.17.

As for `O=c1cc(NC2CCN(S(=O)(=O)c3ccccc3)CC2)c2cc(C(c3ccc(Cl)cc3)c3ccc(Cl)cc3)ccc2[nH]1` [Compound 80, 6-[Bis(4-chlorophenyl)methyl]-4-{[1-(phenylsulfonyl)piperidin-4-yl]amino}quinolin-2(1H)-one], the results for the negative logarithm of the EC50 (pEC50) in test [1] and in test [2] were 7.85 and less than 5.00, respectively.

Regarding `O=c1cc(Cc2ccc(OC(F)(F)F)cc2)c2cc(C(c3ccc(Cl)cc3)c3nccs3)ccc2[nH]1` (stereo not shown) [Compound 515, 6-((4-chlorophenyl)(thiazol-2-yl)methyl)-4-(4-(trifluoromethoxy)benzyl)quinolin-2(1H)-one], the negative logarithm of the EC50 (pEC50) is 6.44 in test [1] and less than 5.00 in test [2].

Regarding `CC(C)(C)OC(=O)COc1ccc(Nc2cc(=O)[nH]c3ccc(C(c4ccc(Cl)cc4)c4ccc(Cl)cc4)cc23)cc1` [Compound 105, tert-butyl 2-(4-((6-(bis(4-chlorophenyl)methyl)-2-oxo-1,2-dihydroquinolin-4-yl)amino)phenoxy)acetate], the values for the pEC50 in test [1] and in test [2] were 7.02 and less than 5.00, respectively.

Consider `O=C(O)CCCCCOc1cc(NC2CCN(S(=O)(=O)C(F)(F)F)CC2)c2cc(C(c3ccc(Cl)cc3)c3ccc(Cl)cc3)ccc2n1` [Compound 535, 6-({6-[Bis(4-chlorophenyl)methyl]-4-({1-[(trifluoromethyl)sulfonyl]-piperidin-4-yl}amino)quinolin-2-yl}oxy)hexanoic acid], for which the pEC50 in test [1] is 7.04; in test [2], 7.22.

In the case of `CCOC(=O)N1CCC(Nc2cc(=O)[nH]c3ccc(C(c4ccc(Cl)cc4)c4nccs4)cc23)CC1` (stereo not shown) [Compound 37, Ethyl 4-({6-[(4-chlorophenyl)(1,3-thiazol-2-yl)methyl]-2-oxo-1,2-dihydroquinolin-4-yl}amino)piperidine-1-carboxylate], the figures for the pEC50 in test [1] and in test [2] were 7.72 and less than 5.00, respectively.

Consider `O=c1cc(NCc2cncc(C(F)(F)F)c2)c2cc(C(c3ccc(Cl)cc3)c3ccc(Cl)cc3)ccc2[nH]1` [Compound 79, 6-[Bis(4-chlorophenyl)methyl]-4-({[5-(trifluoromethyl)pyridin-3-yl]methyl}amino)quinolin-2(1H)-one], for which the negative-log EC50 (pEC50) in test [1] was 7.27; in test [2], 5.17.

On to `COCCNc1cc(C(c2ccc(Cl)cc2)c2ccc(Cl)cc2)cc2c(NC3CCN(S(=O)(=O)C(F)(F)F)CC3)cc(=O)[nH]c12` [Compound 100, 6-(bis(4-chlorophenyl)methyl)-8-((2-methoxyethyl)amino)-4-((1-((trifluoromethyl)sulfonyl)piperidin-4-yl)amino)quinolin-2(1H)-one], for which the figures for the pEC50 in test [1] and in test [2] were 8.22 and 6.70, respectively.

As to `COc1cc(C(c2ccc(Cl)cc2)c2ccc(Cl)cc2)cc2c(NC3CCN(S(=O)(=O)C(F)(F)F)CC3)ccnc12` [Compound 536, 6-[bis(4-chlorophenyl)methyl]-8-methoxy-N-[1-(trifluoromethane)sulfonylpiperidin-4-yl]quinolin-4-amine], the pEC50 was 7.00 in test [1] and 6.69 in test [2].

Consider `O=C(O)c1ccc(S(=O)(=O)N2CCC(Nc3cc(=O)[nH]c4ccc(C(c5ccc(Cl)cc5)c5ccc(Cl)cc5)cc34)CC2)o1` [Compound 131, 5-{[4-({6-[Bis(4-chlorophenyl)methyl]-2-oxo-1,2-dihydroquinolin-4-yl}amino)piperidin-1-yl]sulfonyl}furan-2-carboxylic acid], for which the pEC50 was 6.60 in test [1] and 5.41 in test [2].

Take `Cc1ccc(Nc2cc(=O)[nH]c3ccc(C(c4ccc(Cl)cc4)c4ccc(Cl)cc4)cc23)cn1` [Compound 134, 6-[Bis(4-chlorophenyl)methyl]-4-[(6-methylpyridin-3-yl)amino]quinolin-2(1H)-one]: the negative logarithm of the EC50 (pEC50) in test [1] is 6.52; in test [2], 5.17.

Turning to `O=c1cc(/C=C/c2cccc(F)c2)c2cc(C(c3ccc(Cl)cc3)c3nccs3)ccc2[nH]1` (stereo not shown) [Compound 38, (E)-6-((4-chlorophenyl)(thiazol-2-yl)methyl)-4-(3-fluorostyryl)quinolin-2(1H)-one], the negative logarithm of the EC50 (pEC50) was 6.30 in test [1] and less than 5.00 in test [2].

`OC(c1ccc(Cl)cc1)(c1ccc2nccc(/C=C/c3ccccc3)c2c1)c1cccs1` (stereo not shown) [Compound 506, (4-Chlorophenyl){4-[(E)-2-phenylethenyl]quinolin-6-yl}thiophen-2-ylmethanol]: the negative-log EC50 (pEC50) in test [1] and in test [2] was less than 5.00 each time.

In the case of `CCOC(=O)CCCNc1cc(C(O)(c2ccc(Cl)cc2)c2ccc(Cl)cc2)cc2c(NC3CCN(S(=O)(=O)C(F)(F)F)CC3)cc(OC(C)(C)C)nc12` [Compound 529, Ethyl 4-({6-[bis(4-chlorophenyl)(hydroxy)methyl]-2-tert-butoxy-4-({1-[(trifluoromethyl)sulfonyl]-piperidin-4-yl}amino)quinolin-8-yl}amino)butanoate], the negative logarithm of the EC50 (pEC50) in test [1] and in test [2] was less than 5.00 in each case.

These data come from US9266835B2, “Quinoline derivatives useful as CB-1 inverse agonists” (JANSSEN PHARMACEUTICA NV, priority 2014, dated 2016).
